According to patent US20060084697A1, “Pi3k antagonists as radiosensitizers” (priority 2002, published 2006):

Experiments:
[1] = test system: Akt; test: Western immunoblot of radiation-induced Akt phosphorylation in endothelial cells; type: cell-based
Description: Broad spectrum RTK inhibitors were tested for their abilities to attenuate radiation-induced phosphorylation of Akt. SU6668, a tyrosine kinase inhibitor of VEGFR, PDGFR, FGFR, and c-Kit, was added to endothelial cells prior to irradiation. Western immunoblots using phospho-specific antibodies to phosphorylated Akt (P-Akt) were prepared.
(§1) The role of RTKs in radiation-induced activation of the Akt signaling pathway was examined by studying a panel of tyrosine kinase inhibitors including PDGF receptor antagonists in primary culture endothelial cells. PDGF receptor antagonists including SU6668, SU11248, and STI571, attenuated radiation-induced phosphorylation of both Akt and Erk. […] Similar efficacy in blocking Erk1/2 phosphorylation in irradiated endothelial cells was found.

[2] = test system: Erk1/2; test: Radiation-induced Erk phosphorylation in endothelial cells; type: cell-based; conditions: primary culture endothelial cells (Example 16)
Description: Phosphorylation of MEK and Erk proteins was also investigated. Erk1/2 was activated following a single 3 Gy dose of irradiation. Erk was phosphorylated within 15 minutes, which resolved within 60 minutes. SU6668 is a broad spectrum inhibitor of split kinase domain RTKs, including Flk-1, Flt-1, PDGFR, fibroblast growth factor receptor (FGFR), and c-Kit (Mendel et al, 2003).
as §1

[3] = test system: HUVEC cells; test: Clonogenic survival analysis of HUVEC; type: cell-based, human; conditions: HUVEC treated with SU11248 prior to irradiation; p<0.05
Description: The ability of PI3K antagonist to suppress the clonogenic potential of HUVEC cells treated with radiation was assayed by clonogenic survival analysis. The ability of HUVEC cells treated with LY294002 30 minutes prior to irradiation to form colonies was compared to that of HUVEC cells treated with either radiation or LY294002 alone, and also to that of untreated HUVEC cells. […] Briefly, groups of three HUVEC culture plates were treated at each of four radiation dose levels: 2, 4, 6, and 8 Gy, either with or without prior treatment with PI3K antagonists as described in Example 2. After treatment with radiation and/or antagonists, cells were trypsinized, counted by hemocytometer, and subcultured into fresh medium. After 14 days, the cells were fixed with cold methanol and stained with 1% methylene blue. Colonies with greater than 50 cells were counted and the surviving fraction was determined.

[4] = test system: tumors; test: Power Doppler tumor blood flow, SU11248 and radiation; type: in vivo; conditions: p<0.053
Text: To determine whether prolonged growth delay correlated with reduction in tumor blood flow, amplitude modulated Power Doppler was used to monitor blood flow. Reduced blood flow in tumors treated with SU11248 and radiation correlated with improved tumor growth delay.

[5] = test system: HUVECs; test: Apoptotic nuclei in HUVEC, SU11248 and 6 Gy; type: cell-based, human; conditions: 24 hours
Description: To determine whether broad spectrum RTK inhibition enhances the cytotoxic effects of radiation on vascular endothelium, SU11248 was added 30 minutes prior to irradiation. HUVECs were treated with vehicle control, and either 100 nM SU11248 orvehicle combined with 6 Gy. […] Untreated control cells show 2% apoptotic nuclei as compared to 7 and 8% after treatment with SU11248 or radiation, respectively (p>0.1). […] To determine whether enhanced apoptotic response in endothelial cells treated with SU11248 results in reduced clonogenic cell survival, HUVEC were subcultured and colony formation was quantified.

[6] = test system: tumor vasculature; test: Intravital tumor vascular window, vascular length density, SU11248; type: in vivo, mice
Description: Growth factors produced by tumors could enhance the viability of tumor vascular endothelium. To determine whether SU11248 enhances radiation-induced destruction of tumor vasculature, SU11248 was administered to mice prior to irradiation with 3 Gy. Tumor vascular linear density was measured by use of intravital tumor vascular window. […] Five mice were treated in each of the treatment groups, and the vascular length density after treatment was quantified. Mean vascular length densities over four days are shown as a bar graph.

[7] = test system: LLC hind limb tumors; test: Tumor growth delay, LLC hind limb tumors; type: in vivo, mice
Description: (§2) Destruction of tumor vasculature results in ischemia, which could reduce radiosensitivity of tumors. To determine whether SU11248 enhances tumor growth delay in irradiated tumors, mice bearing LLC and GL261 hind limb tumors were treated with intraperitoneal injection of 40 mg/kg SU11248 or control vehicle 30 minutes prior to each 3 Gy dose of radiation for a total of seven administrations. Both the inhibitor and radiation were discontinued after day 8. Time to doubling of LLC tumor size was 5, 6, 8 and 16 days for vehicle, SU11248, vehicle+21 Gy, and SU11248+21 Gy, respectively.

[8] = test system: GL261 hind limb tumors; test: Tumor growth delay, GL261 hind limb tumors, SU11248; type: in vivo, mice; conditions: SU11248 prior to daily 3 Gy fractions, p<0.05
Description: as §2

[9] = test system: tumors; test: Maintenance SU11248 after radiation, tumor growth delay; type: in vivo
Description: Upon the discontinuation of therapy, tumors rapidly regrow. To determine whether maintenance of SU11248 beyond the completion of radiation improved growth delay, this RTK inhibitor was administered twice daily continuously in groups treated with radiation alone or SU11248 and radiation. Beginning after day 8, three groups (drug alone, radiation+vehicle, and combined therapy) were maintained with twice daily intraperitoneal administrations of 20 mg/kg SU11248 for an additional 7 days. Maintenance treatment was discontinued after day 17, and subsequently resumed after four days of drug holiday.

[10] = test system: PDGFRβ; test: Phospho-PDGFRβ immunohistochemistry of GL261 tumors; type: in vivo, C57BL6 mice; conditions: administered one hour prior to 3 Gy
Text: To determine to the level of phosphorylation of PDGF receptor, GL261 mouse tumor models were sectioned and stained. A phospho-specific antibody to PDGFRβ Tyr751 (Cell Signaling Technology, Beverly, Mass., United States of America) was used. Tumors produced by injecting GL261 murine glioma cells into the hind limb of C57BL6 mice were stained for phospho-PDGFRβ and visualized using immunohistochemistry. Phospho-PDGFRβ staining was graded as 2+ relative to staining in negative controls.
To determine whether cytotoxic therapy alters PDGFRβ phosphorylation, the tumor was irradiated (3 Gy) and snap frozen following irradiation. […] Positive staining for phosphorylated PDGFR was found in endothelium and tumor stroma.
Western immunoblots were performed to verify radiation induced an increase in phosphorylation of PDGFRβ. Protein extracted from irradiated HUVEC had increased phosphorylation of PDGFRβ.

[11] = test system: tumor endothelium; test: TUNEL and vWF co-staining of tumor sections; type: in vivo
Text: To determine whether SU11248 interacts with radiation through the induction of apoptosis in tumor endothelium, TUNEL staining of tumor sections was utilized. Tumor sections were co-stained for the endothelial marker von Willebrand factor (vWF) and TUNEL.

## CCN(CC)CCNC(=O)c1c(C)[nH]c(/C=C2\C(=O)Nc3ccc(F)cc32)c1C [SU11248]
[1]; irradiated vascular endothelium, summary statement
  radiation-induced activation of Akt: attenuate
[1]; primary culture endothelial cells (Example 16)
  radiation-induced phosphorylation of Akt: attenuated
[2]
  radiation-induced phosphorylation of Erk: attenuated
[3]
  clonogenic survival compared to radiation alone: significant reduction
[4]
  tumor blood flow compared to radiation alone: approached significant reduction
[5]; 100 nM SU11248 30 minutes prior to 6 Gy
  endothelial cells with apoptotic nuclei: 21%
[5]; 100 nM SU11248 alone, untreated 2%
  endothelial cells with apoptotic nuclei: 7%
[6]; SU11248 alone
  vascular length density, % of that at 0 hour: 84%
[6]; SU11248 followed by 3 Gy, within 72 hours, p<0.01
  vascular length density, % of that at 0 hours: 8%
[7]; 40 mg/kg i.p. 30 minutes prior to each 3 Gy dose, 21 Gy total, vehicle+21 Gy 8 days
  time to doubling of LLC tumor size: 16 days
[7]; 40 mg/kg i.p., seven administrations, no radiation, vehicle 5 days
  time to doubling of LLC tumor size: 6 days
[7]; LLC, SU11248 prior to daily 3 Gy fractions, p<0.05
  tumor growth delay compared to either agent alone: significant increase
[8]
  tumor growth delay compared to either agent alone: significant increase
[9]; maintenance 20 mg/kg i.p. twice daily for 7 days after day 8, p<0.05 in all groups
  growth to 4-fold that of day 0 tumors: significantly delays
[9]; re-initiation at day 21 after four days of drug holiday
  tumor growth after re-initiation of SU11248: second phase of tumor growth delay
[10]
  radiation-induced PDGFR phosphorylation: markedly attenuated
[11]; SU11248 alone
  apoptotic cells in tumor sections: could not be detected
[11]; radiation and SU11248, 24 hours following treatment, no apoptotic tumor cells
  apoptotic cells in tumor sections: TUNEL positive endothelial cells
